Test results reported in patent US7060733B2, “Methods for treating pancreatitis with curcumin compounds and inhibitors of reactive oxygen species” (The Regents of the University of California, priority 2002, dated 2006).
“Also recorded” adds a separate entry of the source.

Key:
NF-κB and AP-1 = details: various cell types and tissues; cited from earlier work
[1] = system: neutrophil infiltration of pancreatic tissue; assay: Neutrophil infiltration assay of pancreatic tissue; format: in vivo; details: rat
Procedure: Neutrophil infiltration of pancreatic tissue was examined using methods known in the art. See Gukovskaya A S, et al. (1997); Gukovskaya A S, et al. (2002); Pandol S J, et al. (1999); Sandoval D, et al. (1996); and Vaquero E, et al. (2001). The pancreas was cut into about 2 to about 3 mm pieces and fixed in 4% paraformaldehyde for 2 hours. The tissue was then frozen in liquid nitrogen. 8-μm-thick serial cryostat sections of pancreatic tissue from control samples and test samples from Examples 1 and 2 were cut and mounted on glass slides. The slides were placed in phosphate buffered saline (PBS) for 5 minutes. This was repeated twice. Then the slides were transferred into blocking buffer (PBS containing 5% (wt/vol) goat serum, 0.5% bovine serum albumin (wt/vol) and 0.1% gelatin(wt/vol) for 1 hour at room temperature. Then the slides incubated with FITC-conjugated rabbit anti-rat neutrophil antibody (Accurate, Westbury, N.Y.) (diluted 1:120 in the blocking buffer) for 3 hours at room temperature. The slides were the transferred into the blocking buffer, incubated for 5 minutes, and repeated 4 times. Finally, coverslips were mounted over the tissue samples on the slide with the addition of anti-fading medium. The number of infiltrating neutrophils was obtained by counting the neutrophils at 40× magnification in an average of 50 fields covering at least about 1,000 acinar cells. For each sample, neutrophil numbers were expressed as a percentage of acinar cells.

[2] = Solubility of curcumin compounds; format: physicochemical; details: dissolved in DMSO, veins of the rat
isolated acinar cells = assay: Amylase secretion in isolated acinar cells; format: cell-based, rat; details: 100 μM curcumin, versus absence
Procedure: The effect of curcumin on amylase secretion in isolated acinar cells was assayed. Specifically, acinar cells were isolated using a collagenase digestion technique known in the art. Animals were sacrificed with CO2. The pancreas was removed and trimmed from mesentary and fat. […]
Amylase secretion was measured. […] Amylase activity was measured in each supernatant sample as well as the cellular sample and values for amylase release were calculated as the percentage of amylase activity in the cells at the beginning of the experiment that was release into the media during the experiment.
The absorbance was read with a spectrophotometer at 405 nm at 37° C. and the amylase activity in the samples was calculated by subtracting initial from the final readings. […]

behaviour of DMSO solution diluted in saline on intravenous infusion [2]: precipitated
Compound: COc1cc(/C=C/C(=O)CC(=O)/C=C/c2ccc(O)c(OC)c2)ccc1O [curcumin]
activation of NF-κB and AP-1 (NF-κB and AP-1): inhibits
inhibition of neutrophil infiltration in the pancreas ([1]; cerulein pancreatitis): greater than 50%
neutrophil infiltration versus pancreatitis without curcumin ([1]; cerulein pancreatitis): significantly lower; also recorded: significantly inhibited
inhibition of neutrophil infiltration in the pancreas ([1]; ethanol/CCK pancreatitis): greater than 50%
neutrophil infiltration versus pancreatitis without curcumin ([1]; ethanol/CCK pancreatitis): significantly lower; also recorded: significantly inhibited
amylase release elicited by maximal (1 nM) and supramaximal (100 nM) CCK-8 (isolated acinar cells): the same
